Measurements published in patent publication US20230320957A1, “COMPOSITION FOR ANTI-AGING OR SKIN REGENERATION COMPRISING ISOPROCURCUMENOL” (POSCO, priority 2020, published 2023).

Legend:
Assay type in all cases: cell-based
EGFR = EGFR (Homo sapiens, UniProt P00533); assay: EGFR activity measurement biosensor system (EGFP-SH2 fluorescence); conditions: 100 μM; cells cultured 24 hours in serum-free medium; compared to DMSO control
Method: In addition, by using the feature that, when the activities of the EGFR continue to be maintained, the EGFR is internalized into the cell, the cell of the biosensor system that may measure the activities of the EGFR was used in the present experimentation (see Korean Laid-open Patent Publication No. 2019-0014340).
After culturing the cells in a serum-free medium for 24 hours, the cells were treated with Isoprocurcumenol.

HaCaT cells [1] = assay: MTT cytotoxicity assay in HaCaT keratinocytes
Method: The cytotoxicity of Isoprocurcumenol was measured using HaCaT cells as keratinocytes.
When cells are treated with MTT tetrazolium which is a yellow water-soluble substrate, such a substrate is reduced to MTT formazan by mitochondrial enzymes, and the color changes to blue-purple. That is, since the blue-violet color appears darker as the number of living cells increases, the blue-violet absorbance at a wavelength of 540 nm reflects the concentration of living cells.
Specifically, after culturing cells to fill each well of a 96-well plate, the cells were treated with Isoprocurcumenol at concentrations of 0, 10, 25, 50 and 100 μM, and cultured for 24 hours and 48 hours in a 5% CO2 incubator at 37° C. Thereafter, cell viability was measured using MTT reagent. A control group not treated with Isoprocurcumenol (0 μM) was treated with the same amount of the solvent DMSO.

ERK = ERK activation (phosphorylation) by Western blotting in HaCaT cells; conditions: 10 μM
Method: (§1) It is well known that the activities of extracellular signal-regulated kinase (ERK) and protein kinase B (AKT) transmit signals necessary for cell growth and survival by the activities of an EGFR. In addition, in Experimental Example 1, it was observed that Isoprocurcumenol generated signals due to activation of the EGFR in the cells of the biosense system for measuring the activities of the EGFR. Accordingly, it was measured whether the activities of the EGFR were induced by Isoprocurcumenol to the activities of the ERK and AKT.
(§2) Specifically, HaCaT cells were cultured in a serum-free medium, treated with 10 μM of Isoprocurcumenol for 10 minutes, 30 minutes and 60 minutes, respectively, and, thereafter, phosphorylated and activated ERK and AKT were analyzed by Western blotting. As antibodies, a phosphorylation antibody as a marker of activated ERK and AKT, and a general antibody for measuring all thereof were used, respectively.

AKT = AKT activation (phosphorylation) by Western blotting in HaCaT cells; conditions: 10 μM
Method: as §1, §2

egr1 = egr1 gene expression by real-time quantitative PCR in HaCaT cells; conditions: 10 μM, 1 hour, serum-free medium
Text: (§3) Signaling by an EGFR induces the expression of genes important for cell growth and survival through important signaling mediator proteins such as ERK and AKT. The egr1, c-myc, c-jun and c-fos genes are regulated by the EGFR and are well known as genes that promote cell growth and survival.
(§4) Specifically, Tri-reagent was used for mRNA extraction, cDNA was created by a reverse transcription polymerase chain reaction (RT-PCR) using a poly-A primer and a reverse transcriptase, and real-time quantitative PCR was used to measure the amount of each mRNA. The amount of each mRNA was corrected with the amount of β-actin, which is a constitutive gene.

c-myc = c-myc gene expression by real-time quantitative PCR in HaCaT cells; conditions: 10 μM, 1 hour, serum-free medium
Text: as §3, §4

c-jun = c-jun gene expression by real-time quantitative PCR in HaCaT cells; conditions: 10 μM, 1 hour, serum-free medium
Text: as §3, §4

c-fos = c-fos gene expression by real-time quantitative PCR in HaCaT cells; conditions: 10 μM, 1 hour, serum-free medium
Text: as §3, §4

HaCaT cells [2] = assay: CCK-8 assay of growth and proliferation of keratinocytes; conditions: 24 hours, serum-free medium, p<0.05
Method: Cell counting kit-8 (CCK-8) is a water-soluble tetrazolium salt reagent called WST-8 and forms orange-colored water-soluble Formazan by dehydrogenase in the mitochondria of living cells.
Specifically, after culturing 1×10^4 HaCaT cells in a 96-well plate for 24 hours, the cells were changed to a serum-free medium to remove the growth factors contained in the medium, and treated with Isoprocurcumenol at the concentrations of 1 nM, 10 nM, 100 nM, 1 μM and 10 μM. […] After cultured for 24 hours, the cells were treated with CCK8, and the cell growth was analyzed by measuring absorbance at 450 nm.

HaCaT cells [3] = assay: Wound healing assay; conditions: 1 μM
Method: The cell growth promoting effect of Isoprocurcumenol was confirmed through wound healing assay. Specifically, after fully culturing HaCaT cells in a 12-well plate, cells on a certain area were scraped off using a yellow tip to form a wound area, changed to a serum-free medium, and treated with 1 μM of Isoprocurcumenol.

HaCaT cells [4] = assay: Resistance to UVB-induced cell damage (CCK-8 viability); conditions: 1 μM, UVB 500 mJ/cm2, serum-free medium, negative control about 40%
Method: Among the ultraviolet wavelengths, UVB wavelengths corresponding to 280 to 315 nm penetrate the epidermal layer where many keratinocytes exist to cause cell damage.
The solvent DMSO was used as a negative control group, and the cell viability was measured using the CCK-8 method used in Experimental Example 6.

Chain of EGFR (P00533 25-1210, species assumed): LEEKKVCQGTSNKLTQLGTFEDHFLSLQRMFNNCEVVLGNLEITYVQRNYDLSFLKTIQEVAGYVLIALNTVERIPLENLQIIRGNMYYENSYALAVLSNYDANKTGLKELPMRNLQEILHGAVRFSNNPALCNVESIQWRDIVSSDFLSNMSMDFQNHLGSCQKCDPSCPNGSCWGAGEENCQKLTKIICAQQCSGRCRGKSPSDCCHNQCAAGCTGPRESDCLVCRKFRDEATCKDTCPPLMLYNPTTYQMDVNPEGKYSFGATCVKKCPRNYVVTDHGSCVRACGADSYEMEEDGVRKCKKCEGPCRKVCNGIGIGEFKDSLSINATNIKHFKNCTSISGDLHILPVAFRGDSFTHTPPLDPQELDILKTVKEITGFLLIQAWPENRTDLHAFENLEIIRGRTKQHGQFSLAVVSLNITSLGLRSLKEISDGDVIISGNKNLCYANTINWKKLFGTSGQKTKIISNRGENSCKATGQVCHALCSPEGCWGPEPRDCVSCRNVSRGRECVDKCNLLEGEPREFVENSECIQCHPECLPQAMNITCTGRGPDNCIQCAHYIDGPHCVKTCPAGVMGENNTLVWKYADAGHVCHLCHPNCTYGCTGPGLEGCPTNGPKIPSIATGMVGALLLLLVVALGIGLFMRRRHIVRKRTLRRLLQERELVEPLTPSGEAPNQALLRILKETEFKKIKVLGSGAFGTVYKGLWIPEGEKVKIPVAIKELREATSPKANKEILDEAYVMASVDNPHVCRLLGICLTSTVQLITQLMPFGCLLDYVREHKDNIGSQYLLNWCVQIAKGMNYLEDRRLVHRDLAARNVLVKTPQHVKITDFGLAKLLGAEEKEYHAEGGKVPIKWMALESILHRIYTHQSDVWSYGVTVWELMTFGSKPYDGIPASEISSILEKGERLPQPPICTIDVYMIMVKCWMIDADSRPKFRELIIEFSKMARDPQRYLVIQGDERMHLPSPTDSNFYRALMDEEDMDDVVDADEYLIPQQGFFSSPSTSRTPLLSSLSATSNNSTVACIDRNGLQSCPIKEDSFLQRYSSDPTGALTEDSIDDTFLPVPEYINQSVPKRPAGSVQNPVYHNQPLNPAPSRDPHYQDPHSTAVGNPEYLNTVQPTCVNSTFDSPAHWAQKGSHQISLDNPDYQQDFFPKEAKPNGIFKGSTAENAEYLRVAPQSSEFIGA

Question: `C=C1CC(=O)C(=C(C)C)C[C@H]2[C@H]1CC[C@]2(C)O` [Isoprocurcumenol] was tested. Which “EGFR activation (fluorescence signal of biosensor cells)” value (EGFR) did it give?
Answer: activated

Question: And the “cytotoxicity in keratinocytes (overall)” value (HaCaT cells [1]; 0-100 μM, 24 hours and 48 hours, MTT)?
Answer: very low

Question: What about the “cytotoxicity (difference in cell viability)” value (HaCaT cells [1]; 100 μM, cultured 48 hours, MTT) of the same compound?
Answer: 10%

Question: What about the cytotoxicity (HaCaT cells [1]; concentration of 10 μM or less) of the same compound?
Answer: free of cytotoxicity

Question: What about the “time to ERK activation” value (ERK) of the same compound?
Answer: ≤ 30 min

Question: And the “induction of ERK activity” value (ERK; 10 minutes, serum-free medium)?
Answer: sufficiently induced

Question: And the “time to AKT activation” value (AKT)?
Answer: ≤ 30 min

Question: What about the “induction of AKT activity” value (AKT; 10 minutes, serum-free medium) of the same compound?
Answer: sufficiently induced

Question: What about the “egr1 mRNA (corrected with β-actin)” value (egr1) of the same compound?
Answer: increased

Question: What about the “c-myc mRNA (corrected with β-actin)” value (c-myc) of the same compound?
Answer: increased

Question: What about the “c-jun mRNA (corrected with β-actin)” value (c-jun) of the same compound?
Answer: increased

Question: What about the “c-fos mRNA (corrected with β-actin)” value (c-fos) of the same compound?
Answer: increased

Question: And the “growth and proliferation of cells vs negative control” value (HaCaT cells [2]; 10 nM)?
Answer: significantly increased

Question: And the “growth and proliferation of cells vs negative control” value (HaCaT cells [2]; 100 nM)?
Answer: significantly increased

Question: What about the “growth and proliferation of cells vs negative control” value (HaCaT cells [2]; 1 μM) of the same compound?
Answer: significantly increased

Question: And the “growth and proliferation of cells vs negative control” value (HaCaT cells [2]; 10 μM)?
Answer: significantly increased

Question: And the “filling of wound area vs negative control” value (HaCaT cells [3]; culture for 6 days, serum-free medium)?
Answer: more quickly filled

Question: What about the “difference in wound area vs negative control” value (HaCaT cells [3]; from the 3rd day, t-test p<0.05) of the same compound?
Answer: more significant difference

Question: What about the “cells survived after UVB” value (HaCaT cells [4]) of the same compound?
Answer: about 60%
